According to publication PMC10468695, “The coenzyme B12 precursor 5,6-dimethylbenzimidazole is a flavin antagonist in Salmonella” (Microbial Cell, 2023):

Target: T1, NAD(P)H:flavin reductase (Fre) (Salmonella enterica, UniProt Q9L6L9)
T1 construct: tag-less Fre (H6 tag cleaved by rTEV)
T1 sequence (Q9L6L9 2-233): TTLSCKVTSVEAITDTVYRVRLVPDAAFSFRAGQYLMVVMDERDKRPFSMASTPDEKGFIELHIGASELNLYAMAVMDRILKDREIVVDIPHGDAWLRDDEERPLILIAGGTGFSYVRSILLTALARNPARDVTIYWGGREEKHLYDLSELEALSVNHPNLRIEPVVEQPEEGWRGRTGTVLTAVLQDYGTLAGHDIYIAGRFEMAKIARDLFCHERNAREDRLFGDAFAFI
Test: NADH oxidation assay at […] nm with purified Fre; competitive inhibition fit versus FMN
Format: biochemical

For Cc1cc2nc[nH]c2cc1C [DMB, 5,6-dimethylbenzimidazole], the Ki was 1900 µM.
